Entries after “also recorded” stand apart in the source; their conditions may differ. Peptide text beside a SMILES is read from it. * marks the point of attachment. Cbz = O=C(OCc1ccccc1)*
Legend:
[1] = tested on: zinc-insufficient oocytes; assay: Spindle phenotype scoring after IVM in TPEN with proteasome inhibitor MG132 added after 10 h; format: cell-based, mouse; settings: TPEN 10 h, then TPEN + 20 μM MG132 6 h
Experimental: For IVM studies, immature female CD1 mice (17 to 21 day old) were injected with 5IU equine chorionic gonadotropin (eCG) (Calbiochem, La Jolla, CA) in 100 μL sterile phosphate-buffered saline (PBS), intraperitoneally. After 44 to 48 hours, mice were anesthetized using isoflurane and euthanized by cervical dislocation. Dissected ovaries were placed in Leibovitz L-15 medium containing 1% FBS (L-15/FBS) and 0.2mM 3-isobutyl-1-methylxanthine (IBMX), and large antral follicles were punctured using 28 gauge needles to release cumulus oocyte complexes (COCs). COCs were washed through several drops of culture medium consisting of Minimum Essential Medium (MEM)-alpha with GLUTAMAX supplemented with 10% FBS, 1.5IU/mL human chorionic gonadotropin (hCG), and 5ng/mL epidermal growth factor and placed in culture medium with or without 10 μM N,N,N′,N′-tetrakis(2-pyridylmethyl) ethylenediamine (TPEN). In some experiments Z-Leu-Leu-Leu-al (MG132) was added to culture medium at 20 μM. COCs were cultured in drops of pre-equilibrated medium covered with embryo quality mineral oil at 37° C. in 5% CO2 with a humid environment. Ovulated MII eggs were collected from 4 to 6 week old mice primed with 5IU PMSG followed 48 h later by 5IU hCG. Oviducts were dissected into L-15/FBS, and eggs were removed and treated with 0.03% (w/v) hyaluronidase to remove cumulus cells. Eggs were washed and cultured in potassium simplex optimized medium (KSOM) (Millipore, Billerica, MA) covered with embryo quality mineral oil at 37° C. in 5% CO2.
Oocytes were denuded of cumulus cells and fixed in a microtubule stabilizing buffer (Ibanez et al., 2005) containing 2% formaldehyde and 1% Triton X-100 for 30 min at 37° C. Oocytes were washed and blocked in PBS containing 0.1M glycine, 3mg/mL BSA, 0.01% Tween 20, and 0.01% sodium azide for at least 1 h and were stored in blocking solution at 4° C. for up to 2 weeks. Oocytes were incubated with anti-tubulin antibody (1:100) for 1 h at 37C. followed by three washes in blocking solution. They were then incubated for 1 h in AlexaFluor-488 conjugated anti-mouse secondary antibody (5μg/mL) and rhodamine-phalloidin (2U/mL), washed three additional times, and mounted in VECTASHIELD with DAPI. Microscopy was performed using a Leica SP5 inverted laser-scanning confocal microscope with a 63x oil immersion objective (Leica Microsystems, Heidelberg, Germany). Images were processed using LAS AF software (Leica Microsystems).
It has been previously shown that zinc-insufficient oocytes fail to increase MPF activity following the first meiotic division and have low CCNB1 protein levels (Bernhardt et al., 2010). In order to determine whether this decrease in CCNB1 is the major cause of the observed meiotic arrest phenotype, it was tested whether increasing CCNB1 would be sufficient to rescue MII entry in zinc-insufficient oocytes by inhibiting the proteasome at the end of the MI-MII transition, thereby halting CCNB1 degradation. Experimental oocytes were cultured for 10 hours in TPEN-containing medium and were then transferred into medium containing TPEN as well as the proteasome inhibitor Z-Leu-Leu-Leu-al (MG132) at 20 μM concentration. MG132 was added after first polar body extrusion, because earlier addition would result in MI arrest due to failure to degrade APC/C targets that prevent cell division. Oocytes were cultured for an additional 6 h in the presence of MG132 to allow time for CCNB1 reaccumulation, for a total 16 h IVM culture period. Proteasome inhibition led to a partial rescue of the zinc insufficiency phenotype. 69% of treated oocytes formed spindle-like structures, and none were in telophase I arrest, despite being cultured in the presence of TPEN for the entire culture period (FIG. 2, A; Table 2).
A majority of zinc-insufficient oocytes treated with MG132 following the first meiotic division transition progress beyond telophase-I arrest and form MII spindle-like structures. […]

MPF activity = assay: Histone H1 kinase assay on single oocytes/eggs (MPF activity); format: cell-based, mouse; settings: TPEN 10 h, then TPEN + 20 μM MG132 6 h
Experimental: Histone H1 and myelin basic protein (MBP) dual kinase assays were performed as previously described (Svoboda et al., 2000). Dried gels were exposed to Kodak BIOMAX MR films for 12 to 72 hours at −80° C. using Kodak intensifying screens; films were developed, scanned, and analyzed using ImageJ software. Assays were performed on single oocytes, and densitometric analysis is expressed relative to levels in control eggs.

CCNB1 = assay: Western blot for CCNB1 in oocytes; format: cell-based, mouse; settings: TPEN 10 h, then TPEN + 20 μM MG132 6 h
Experimental: Western blotting was performed essentially as previously described (Bernhardt et al., 2010). Briefly, 15 to 50 cumulus-denuded oocytes were transferred in a minimal amount of medium to microcentrifuge tubes and immediately lysed in 8 μL of 1x SDSPAGE Sample Buffer (Laemmli, 1970). SDS-PAGE gels were run using the Invitrogen NuPAGE system and transferred to Immobilon-P PVDF membranes (Millipore, Billerica, MA). Blocking and antibody incubations were in 2% w/v ECL Advanced Blocking Reagent (Amersham) in TBS-T (20mM Tris, pH7.4, 137mM NaC1, 0.1% Tween20 v/v). Anti-CCNB1antibody was diluted 1:500, anti-FBXO43 was used at 1:1000 dilution, and anti-tubulin antibody was used at 1:10,000. HRP-conjugated secondary antibodies were diluted 1:10,000. Detection was performed using Amersham ECL Advanced detection reagent. BIOMAX MR films (Kodak, Rochester, NY) were exposed and developed, or an Alpha-Innotech (San Learndo, CA) MultiImage II system was used.

MII eggs = assay: Activation of in vivo ovulated MII eggs (SrCl2, TPEN, ZnPT pre-treatment)
Experimental: Ovulated MII eggs were collected as described above. Eggs were transferred to KSOM medium with or without 10 μM ZnPT (1:1000 dilution of a 10 mM stock in DMSO) for exactly 5 minutes. Eggs were then washed in KSOM and allowed to recover for 10-15 minutes prior to activation. For SrCl2 activation, eggs were transferred to drops of calcium-free KSOM containing 10 mM SrCl2 for 2 hours, followed by 4 additional hours of culture in calcium-containing KSOM without SrCl2. TPEN activation was performed as previously described (Kim et al., 2011); eggs were cultured for 6 hours in KSOM containing 10 μM TPEN. Unactivated controls were cultured in KSOM for the same 6 hour time period to assess levels of spontaneous parthenogenesis.
MII eggs were treated with the ionophore zinc pyrithione (ZnPT) for 5 minutes to increase intracellular zinc. Following a 10-15 minute recovery period, eggs were then treated with activating agents SrCl2 or TPEN.

## CC(C)C[C@@H](C=O)NC(=O)[C@H](CC(C)C)NC(=O)[C@H](CC(C)C)NC(=O)OCc1ccccc1 [MG132, Z-Leu-Leu-Leu-al] (Cbz-Leu-Leu-Leu-aldehyde)
[1]
  oocytes with some degree of MII spindle formation (spindle-like structures): 69%
[1]; n=26
  MII (aligned metaphase plate): 19%
  other spindle phenotype: 15%
  persisting midbody or chromatin mass: 15%
  spindle with chr. scattered along length: 19%
  spindle with ≦3 chr. out of place: 31%
MPF activity
  MPF activity (histone H1 kinase) compared to oocytes cultured with TPEN alone: increased
CCNB1
  CCNB1 protein levels: only partially restores; also recorded: only slightly increased

## [Cl-].[Cl-].[Sr+2] [SrCl2]
MII eggs; control MII eggs, by 6 hours post activation, 10 mM SrCl2 2 h or 10 μM TPEN 6 h
  egg activation (second polar body and PN or PN-like structures): activated normally

## zinc pyrithione [ZnPT]
MII eggs; 10 μM ZnPT 5 minutes, unactivated eggs and SrCl2-treated eggs, 6 hours of culture
  MII spindle organisation after ZnPT: caused spindle abnormalities
MII eggs; MII eggs, 10 μM ZnPT 5 minutes, then 10 μM TPEN 6 h
  egg activation by TPEN after ZnPT pre-treatment: formed second polar bodies and PN-like structures
MII eggs; MII eggs, 10 μM ZnPT 5 minutes, then 10 mM SrCl2
  egg activation by SrCl2 after ZnPT pre-treatment: did not show signs of activation
